{"source": "patent US4952605A", "about": "(priority 1988, dated 1990)", "key": {"[1]": {"system": "PMA-induced ear edema (inflammation) in mice", "experiment": "Mouse ear anti-inflammatory assay (PMA-induced edema)", "type": "in vivo", "details": "for relative increase in ear weight: statistically significant difference", "method": "Test compound and phorbol myristate acetate (PMA) are topically applied simultaneously to the pinnae of the left ears of mice. PMA alone is applied to the right ear. Three hours and 20 minutes after application, the mice are sacrificed, left and right ears removed, and standard sized bores taken. Edema (inflammation) is measured as the difference in weight between left and right ears (C. G. Van Arman, Clin Pharmacol Ther (1974) 16:900-904).\nThe results of separate, similar experiments are set forth below (*=statistically significant difference).\nIn another separate experiment, the effect of dehydro-seco-manoalide was determined (PMA=15 μg/ear).\nIn separate, similar experiments, where […] was at 1.5 ug/ear, luffariellin A and B (50 ug/ear) gave statistically significant differences in relative increase in ear weight (0.308±0.065 and 0.262±0.053, respectively) as compared to PNA alone (0.618± 0.113); as did 50 ug luffariellolide (0.221±0.068) as compared to PMA alone (0.929±0.200)."}, "[2]": {"biological_target": "bee venom phospholipase A2 (PLA2) (Apis mellifera, UniProt P00630)", "sequence (P00630 34-167 limits assumed)": "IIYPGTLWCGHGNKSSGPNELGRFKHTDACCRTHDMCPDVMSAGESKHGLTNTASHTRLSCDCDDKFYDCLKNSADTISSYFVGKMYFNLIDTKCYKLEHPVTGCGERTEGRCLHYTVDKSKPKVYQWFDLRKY", "experiment": "biochemical", "details": "for inhibition at 0.75 µM: pH 7.4, read-out: Percent Inhibition of PLA2; for inhibition at 0.25 µM / inhibition at 0.5 µM / inhibition at 2 µM / inhibition at 4 µM: pH 7.4, read-out: Percent Inhibition of PLA2; for inhibition at 0.5 µM: 0.50 uM"}, "bee venom PLA2": {"biological_target": "bee venom PLA2 (Apis mellifera, UniProt P00630)", "sequence (P00630 34-167 limits assumed)": "as above", "experiment": "biochemical", "details": "pH 7.4"}, "[3]": {"system": "Chinese hamster ovary K1 cells", "experiment": "Effect on CHO cell growth", "type": "cell-based", "details": "Cricetulus griseus", "method": "Chinese hamster ovary K1 cells are maintained in Dulbecco's Modified Eagle's Medium at 36° C. with 95% air and 5% CO2. Cells are transferred into 35 mm culture dishes, allowed 24 hours to adhere, then exposed to medium containing drug for the duration of the experiment. The number of adhered cells is counted at 24, 48, and 72 hours after initial exposure to drug."}, "[4]": {"details": "dose 25.0 ug/ear topical, PMA 1.5 ug/ear, untreated 9.3 mg, PMA alone 23 mg, *=statistically significant"}, "[5]": {"details": "dose 50.0 ug/ear topical, PMA 1.5 ug/ear, untreated 9.3 mg, PMA alone 23 mg, *=statistically significant"}, "[6]": {"details": "50 ug/ear, PNA [sic] 1.5 ug/ear, PNA alone 0.618±0.113"}}}
{"smiles": "CC(=CCCC(C=O)=CC=CC1=CC(=O)OC1O)CCC1=C(C)CCCC1(C)C", "note": "(stereo not shown) [Dehydro-seco-manoalide]", "values": [{"measurement": "relative potency of dehydro-seco-manoalide to manoalide", "setting": "[1]; from dose/response data, relative to manoalide", "result": 1.32}, {"measurement": "Average Ear Weight", "setting": "[1]; separate experiment, dose 50 ug/ear, PMA=15 μg/ear, no agent 24.60 mg/ear", "result": 14.30, "unit": "mg/ear"}, {"measurement": "inhibition at 0.75 µM", "setting": "[2]", "result": 51.3, "unit": "%"}, {"measurement": "inhibition at 0.25 µM", "setting": "[2]", "result": 30.3, "unit": "%"}, {"measurement": "inhibition at 0.5 µM", "setting": "[2]", "result": 61.8, "unit": "%"}, {"measurement": "inhibition at 2 µM", "setting": "[2]", "result": 72.4, "unit": "%"}, {"measurement": "inhibition at 4 µM", "setting": "[2]", "result": 87.3, "unit": "%"}]}
{"smiles": "CC(=CCCC1=CCC(C2=CC(=O)OC2O)OC1=O)CCC1=C(C)CCCC1(C)C", "note": "(stereo not shown) [Manoalide delta Lactone, manoalide delta-lactone]", "values": [{"measurement": "Average Ear Weight", "setting": "[1]; [4]", "result": 16.28, "unit": "mg/ear"}, {"measurement": "Average Ear Weight", "setting": "[1]; [5]", "result": 14.87, "unit": "mg/ear"}]}
{"smiles": "CC(=CCCC1=CCC(C2=CC(=O)OC2O)OC1O)CCC1=C(C)CCCC1(C)C", "note": "(stereo not shown) [Manoalide, reference compound]", "values": [{"measurement": "Average Ear Weight", "setting": "[1]; dose 7.5 ug/ear topical, PMA 1.5 ug/ear, untreated 9.3 mg, PMA alone 23 mg, *=statistically significant", "result": 20.45, "unit": "mg/ear"}, {"measurement": "Average Ear Weight", "setting": "[1]; dose 10.0 ug/ear topical, PMA 1.5 ug/ear, untreated 9.3 mg, PMA alone 23 mg, *=statistically significant", "result": 19.75, "unit": "mg/ear"}, {"measurement": "Average Ear Weight", "setting": "[1]; dose 20.0 ug/ear topical, PMA 1.5 ug/ear, untreated 9.3 mg, PMA alone 23 mg, *=statistically significant", "result": 17.00, "unit": "mg/ear"}, {"measurement": "Average Ear Weight", "setting": "[1]; dose 40.0 ug/ear topical, PMA 1.5 ug/ear, untreated 9.3 mg, PMA alone 23 mg, *=statistically significant", "result": 16.80, "unit": "mg/ear"}, {"measurement": "Average Ear Weight", "setting": "[1]; dose 80.0 ug/ear topical, PMA 1.5 ug/ear, untreated 9.3 mg, PMA alone 23 mg, *=statistically significant", "result": 12.90, "unit": "mg/ear"}, {"measurement": "Average Ear Weight", "setting": "[1]; dose 160.0 ug/ear topical, PMA 1.5 ug/ear, untreated 9.3 mg, PMA alone 23 mg, *=statistically significant", "result": 12.60, "unit": "mg/ear"}, {"measurement": "Average Ear Weight", "setting": "[1]; dose 320.0 ug/ear topical, PMA 1.5 ug/ear, untreated 9.3 mg, PMA alone 23 mg, *=statistically significant", "result": 11.20, "unit": "mg/ear"}, {"measurement": "inhibition at 0.75 µM", "setting": "[2]", "result": 73.5, "unit": "%"}, {"measurement": "inhibition at 0.25 µM", "setting": "[2]", "result": 20.7, "unit": "%"}, {"measurement": "inhibition at 0.5 µM", "setting": "[2]", "result": 48, "unit": "%"}, {"measurement": "inhibition at 2 µM", "setting": "[2]", "result": 92.8, "unit": "%"}, {"measurement": "inhibition at 4 µM", "setting": "[2]", "result": 94.5, "unit": "%"}]}
{"smiles": "CC(=O)OC1OC(=O)C=C1C1CC=C(CCC=C(C)CCC2=C(C)CCCC2(C)C)C(=O)O1", "note": "(stereo not shown) [Manoalide delta Lactone Acetate, manoalide delta-lactone acetate]", "values": [{"measurement": "Average Ear Weight", "setting": "[1]; [4]", "result": 16.64, "unit": "mg/ear"}, {"measurement": "Average Ear Weight", "setting": "[1]; [5]", "result": 13.34, "unit": "mg/ear"}]}
{"smiles": "CC(=CCCC1=CC(=O)OC1O)CCC=C(C)CCC1=C(C)CCCC1(C)C", "note": "(stereo not shown) [luffariellolide, 3-(4,8-dimethyl-10-(2,6,6-trimethylcyclohexenyl)-deca,7-dienyl)-4-hydroxybutenolide]", "values": [{"measurement": "relative increase in ear weight", "setting": "[1]; 50 ug, PMA alone 0.929±0.200", "result": "0.221±0.068"}, {"measurement": "inhibition at 0.25 µM", "setting": "bee venom PLA2; 0.25 uM", "result": 59, "unit": "%"}, {"measurement": "inhibition at 0.5 µM", "setting": "bee venom PLA2; 0.5 uM", "result": 59.7, "unit": "%"}, {"measurement": "inhibition at 1 µM", "setting": "bee venom PLA2; 1.0 uM", "result": 62.6, "unit": "%"}, {"measurement": "inhibition at 42 µM", "setting": "[3]; 24 hours", "result": 63, "unit": "%"}, {"measurement": "inhibition at 42 µM", "setting": "[3]; 48 hours", "result": 74, "unit": "%"}, {"measurement": "inhibition at 42 µM", "setting": "[3]; 72 hours", "result": 71, "unit": "%"}]}
{"smiles": "C=C(C)C1(CCC(C)=CCCC(C=O)=CCC(O)C2=CC(=O)OC2O)CCCC1C", "note": "(stereo not shown) [luffariellin B]", "values": [{"measurement": "relative increase in ear weight", "setting": "[1]; [6]", "result": "0.262±0.053"}]}
{"smiles": "CC(=CCCC(=CCC(O)C1=CC(=O)OC1)CO)CCC1=C(C)CCCC1(C)C", "note": "(stereo not shown) [Manoalide Diol, 3,7-Bis(hydroxymethyl)-4-hydroxy-11-methyl-13-(2,6,6-trimethylcyclohexenyl)-2,6,10-tridecatrienoic acid gamma-lactone]", "values": [{"measurement": "Average Ear Weight", "setting": "[1]; [4]", "result": 14.54, "unit": "mg/ear"}, {"measurement": "Average Ear Weight", "setting": "[1]; [5]", "result": 13.17, "unit": "mg/ear"}]}
{"smiles": "C=C(C)C1(CCC(C)=CCCC2=CCC(C3=CC(=O)OC3O)OC2O)CCCC1C", "note": "(stereo not shown) [luffariellin A]", "values": [{"measurement": "relative increase in ear weight", "setting": "[1]; [6]", "result": "0.308±0.065"}]}
